pIC50: −log10 of the molar value. Where a name gives a salt, the structure may show the parent alone. Read-outs that look alike come from different tables or passages of the source.
Key:
[1] = biological target: T1, Human vitronectin receptor (αv β3) (Homo sapiens, UniProt P05106+P06756); assay: Vitronectin adhesion assay (solid phase receptor assay, biotinylated vitronectin competition); assay type: binding
T1 construct: Human vitronectin receptor(αv β3) was purified from human placenta; from tissue; host or cells: human placenta
Protocol: VITRONECTIN ADHESION ASSAY Human vitronectin receptor(αv β3) was purified from human placenta as previously described [Pytela et al., Methods in Enzymology, 144:475-489 (1987)). Human vitronectin was purified from fresh frozen plasma as previously described [Yatohgo et al., Cell Structure and Function, 13:281-292 (1988)]. Biotinylated human vitronectin was prepared by coupling NHS-biotin from Pierce Chemical Company (Rockford, Ill.) to purified vitronectin as previously described [Charo et al., J. Biol. Chem., 266(3):1415-1421 (1991)]. Assay buffer, OPD substrate tablets, and RIA grade BSA were obtained from Sigma (St. Louis, Mo.). Anti-biotin antibody was obtained from Calbiochem (La Jolla, Calif.). Linbro microtiter plates were obtained from Flow Labs (McLean, Va.). ADP reagent was obtained from Sigma (St. Louis, Mo.). Solid Phase Receptor Assays This assay was essentially the same as previously reported [Niiya et al., Blood, 70:475-483 (1987)]. The purified human vitronectin receptor (αv β3) was diluted from stock solutions to 1.0 μg/mL in Tris-buffered saline containing 1.0 mM Ca^++, Mg^++, and Mn^++, pH 7.4 (TBS^+++). The diluted receptor was immediately transferred to Linbro microtiter plates at 100 μL/well (100 ng receptor/well). The plates were sealed and incubated overnight at 4° C. to allow the receptor to bind to the wells. All remaining steps were at room temperature. The assay plates were emptied and 200 μL of 1% RIA grade BSA in TBS^+++ (TBS^+++ /BSA) were added to block exposed plastic surfaces. Following a 2 hour incubation, the assay plates were washed with TBS^+++ using a 96 well plate washer. Logarithmic serial dilution of the test compound and controls were made starting at a stock concentration of 2 mM and using 2 nM biotinylated vitronectin in TBS^+++ /BSA as the diluent. This premixing of labeled ligand with test (or control) ligand, and subsequent transfer of 50 μL aliquots to the assay plate was carried out with a CETUS Propette robot; the final concentration of the labeled ligand was 1 nM and the highest concentration of test compound was 1.0×10^-4 M. The competition occurred for two hours after which all wells were washed with a plate washer as before. Affinity purified horseradish peroxidase labeled goat antibiotin antibody was diluted 1:3000 in TBS^+++ /BSA and 125 μL were added to each well. After 30 minutes, the plates were washed and incubated with OPD/H2 O2 substrate in 100 mM/L Citrate buffer, pH 5.0. The plate was read with a microtiter plate reader at a wavelength of 450 nm and when the maximum-binding control wells reached an absorbance of about 1.0, the final A450 were recorded for analysis. The data were analyzed using a macro written for use with the EXCEL™ spreadsheet program. The mean, standard deviation, and %CV were determined for duplicate concentrations. The mean A450 values were normalized to the mean of four maximum-binding controls (no competitor added)(B-MAX). The normalized values were subjected to a four parameter curve fit algorithm [Rodbard et al., Int.

[2] = biological target: T2, Human fibrinogen receptor (αIIb β3) (Homo sapiens, UniProt P05106+P08514); assay: Purified IIb/IIIa receptor assay (solid phase receptor assay, biotinylated vitronectin competition); details: inhibition of 50% of the maximum binding of biotinylated vitronectin; 1 nM labeled ligand, 2 hours, room temperature, highest concentration of test compound 1.0×10^-4 M
T2 construct: Human fibrinogen receptor (αIIb β3) was purified from outdated platelets; from tissue; host or cells: outdated human platelets
Description: PURIFIED IIb/IIIa RECEPTOR ASSAY Human fibrinogen receptor (αIIb β3) was purified from outdated platelets. (Pytela, R., Pierschbacher, […]., Suzuki, S., and […] acid adhesion receptors", Methods in Enzymology 144(1987):475-489.) Human vitronectin was purified from fresh frozen plasma as described in Yatohgo, T., Izumi, M., Kashiwagi, H., and Hayashi, M., "Novel purification of vitronectin from human plasma by heparin affinity chromatography," Cell Structure and Function 13(1988):281-292. Biotinylated human vitronectin was prepared by coupling NHS-biotin from Pierce Chemical Company (Rockford, Ill.) to purified vitronectin as previously described. (Charo, […]., Phillips, D. R., Hsu, M. A., Scarborough, R. M., "Inhibition of fibrinogen binding to GP IIb/IIIa by a GP IIIa peptide", J. Biol. Chem. 266(3)(1991):1415-1421.) Assay buffer, OPD substrate tablets, and RIA grade BSA were obtained from Sigma (St. Louis, Mo.). Anti-biotin antibody was obtained from Calbiochem (La Jolla, Calif.). Linbro microtiter plates were obtained from Flow Labs (McLean, Va.). ADP reagent was obtained from Sigma (St. Louis, Mo.). Solid Phase Receptor Assays This assay is essentially the same reported in […]., Bader, R., Byers-Ward, […]., Plow, E. F. and Ruggeri, Z. M., "Increased surface expression of the membrane glycoprotein IIb/IIIa complex induced by platelet activation: Relationships to the binding of fibrinogen and platelet aggregation", Blood 70(1987):475-483. The purified human fibrinogen receptor (αIIb β3) was diluted from stock solutions to 1.0 μg/mL in Tris-buffered saline containing 1.0 mM Ca^++, Mg^++, and Mn^++, pH 7.4 (TBS^+++). The diluted receptor was immediately transferred to Linbro microtiter plates at 100 μL/well (100 ng receptor/well). The plates were sealed and incubated overnight at 4° C. to allow the receptor to bind to the wells. All remaining steps were at room temperature. The assay plates were emptied and 200 μL of 1% RIA grade BSA in TBS^+++ (TBS^+++ /BSA) were added to block exposed plastic surfaces. Following a 2 hour incubation, the assay plates were washed with TBS^+++ using a 96 well plate washer. Logarithmic serial dilution of the test compound and controls were made starting at a stock concentration of 2 mM and using 2 nM biotinylated vitronectin in TBS^+++ /BSA as the diluent. This premixing of labeled ligand with test (or control) ligand, and subsequent transfer of 50 μL aliquots to the assay plate was carried out with a CETUS Propette robot; the final concentration of the labeled ligand was 1 nM and the highest concentration of test compound was 1.0×10^-4 M. The competition occurred for two hours after which all wells were washed with a plate washer as before. Affinity purified horseradish peroxidase labeled goat antibiotin antibody was diluted 1:3000 in TBS^+++ /BSA and 125 μL were added to each well. After 30 minutes, the plates were washed and incubated with […]/H2 O2 substrate in 100 mM/L citrate buffer, pH 5.0. The plate was read with a microtiter plate reader at a wavelength of 450 nm and when the maximum-binding control wells reached an absorbance of about 1.0, the final A450 were recorded for analysis. The data were analyzed using a macro written for use with the EXCELTM spreadsheet program. The mean, standard deviation, and %CV were determined for duplicate concentrations. The mean A450 values were normalized to the mean of four maximum-binding controls (no competitor added)(B-MAX). The normalized values were subjected to a four parameter curve fit algorithm, [Robard et al., Int.

[3] = inhibition of 50% of the maximum binding of biotinylated vitronectin, 1 nM labeled ligand, 2 hours, room temperature, highest concentration of test compound 1.0×10^-4 M, read-out: AvB3 IC50

| SMILES | pIC50 [1, 3] | pIC50 [2] | pIC50 ([1]; positive control included on each plate, range given in text, read-out: αv β3 antagonist IC50 (positive control)) |
| --- | --- | --- | --- |
| CC(CC(=O)O)c1cccc(CNC(=O)c2cccc(Nc3nc4ccccc4[nH]3)c2)c1 (racemic) [Example 69, (±) 3-[[[[3-[(1H-benzimidazol-2-yl)amino]phenyl]carbonyl]amino]methyl]-β-methyl benzenepropanoic acid] | 6.37 | 5.00 | – |
| O=C(O)CC(c1cc(F)cc(F)c1)c1cccc(NS(=O)(=O)c2cccc(NC3=NCCN3)c2)c1 (stereo not drawn) [Example 98, β-[3-[[[3-[(4,5-dihydro-1H-imidazol-2-yl)amino]phenyl]sulfonyl]amino]phenyl]-3,5-difluorobenzenepropanoic Acid, Trifluoroacetate Salt] | 9.07 | 6.19 | – |
| NC(=O)N=C(N)Nc1cccc(S(=O)(=O)Nc2cccc(C(CC(=O)O)c3cc(Cl)cc(Cl)c3)c2)c1 (stereo not drawn) [Example 90, β-[3-[[[3-[[amino[(aminocarbonyl)imino]methyl]amino]phenyl]sulfonyl]amino]phenyl]-3,5-dichlorobenzenepropanoic Acid, Trifluoroacetate Salt] | 7.05 | 4.86 | – |
| CCC(CC(=O)O)c1cccc(CNC(=O)c2cc(NC(=N)N)cc(C(F)(F)F)c2)c1 (racemic) [Example 59, (±) 3-[[[[3-[(aminoiminomethyl)amino]-5(trifluoromethyl)phenyl]carbonyl]amino]methyl]-β-ethylbenzenepropanoic acid, trifluoroacetate salt] | 8.41 | 5.50 | – |
| N=C(N)Nc1cccc(SCc2cccc(C(CC(=O)O)c3ccccc3)c2)c1 (stereo not drawn) [Example 87, 3-[[3-[(aminoiminomethyl)amino]phenylthio]methyl]-β-phenylbenzenepropanoic Acid, Trifluoroacetate Salt] | 7.29 | 5.48 | – |
| O=C(O)CC(c1ccccc1)c1cccc(NS(=O)(=O)c2cccc(NC(=O)NCc3ccccc3)c2)c1 (stereo not drawn) [Example 13, 3-[[[3-[[[(phenylmethyl)amino]carbonyl]amino]phenyl]sulfonyl]amino]-β-phenylbenzenepropanoic acid, monohydrate] | 6.79 | 4.93 | – |
| O=C(O)CC(c1cc(F)cc(F)c1)c1cccc(CNC(=O)c2cccc(NC3=NCCCN3)c2)c1 (racemic) [Example 62, (±) 3,5-difluoro-β-[3-[[[[3-[(1,4,5,6-tetrahydropyrimidin-2-yl)amino]phenyl]carbonyl]amino]methyl]phenyl]benzenepropanoic acid, trifluoroacetate salt monohydrate] | 9.06 | 5.72 | – |
| N=C(N)Nc1cccc(CNc2cccc(C(CC(=O)O)c3ccccc3)c2)c1 (stereo not drawn) [Example 11, 3-[[[3-[(aminoiminomethyl)amino]phenyl]methyl]amino]-β-phenylbenzenepropanoic acid, trifluoroacetate salt] | 6.26 | 5.61 | – |

The remaining lines, values ahead:

| pIC50 [1, 3] | pIC50 [2] | pIC50 ([1]; positive control included on each plate, range given in text, read-out: αv β3 antagonist IC50 (positive control)) | SMILES |
| --- | --- | --- | --- |
| 7.66 | 5.63 | – | N=C(N)Nc1cccc(S(=O)(=O)Nc2cccc(C3CC(=O)Oc4ccccc43)c2)c1 (centres unmarked) [Example 100, 3-[(aminoiminomethyl)amino]-N-[3-(3,4-dihydro-2-oxo-2H-benzopyran-4-yl)phenyl]benzenesulfonamide, Trifluoroacetate Salt] |
| < 5.00 | 5.36 | – | N=C(N)c1cccc(C(=O)NCc2cccc(CCC(=O)O)c2)c1 [Example 23, 3-[[[[3-(aminoiminomethyl)phenyl]carbonyl]amino]methyl]benzenepropanoic acid, trifluoroacetate salt] |
| 5.03 | 4.49 | – | NC(=O)Nc1cccc(C(=O)NCc2cccc(CCC(=O)O)c2)c1 [Example 29, 3-[[[[3-[(aminocarbonyl)amino]phenyl]carbonyl]amino]methyl]benzenepropanoic acid] |
| – | – | 8.00 to 8.52 | N=C(N)NCCCCC(=O)NCC(=O)NC(CC(=O)O)c1cccnc1 (stereo not drawn) [β-[[2-[[5-[(aminoiminomethyl)amino]-1-oxopentyl]amino]-1-oxoethyl]amino]-3-pyridinepropanoic acid] |
